Measurements as given in patent EP0005541A2, “Substituted piperidine, morpholine or piperidone derivatives, fungicides containing these compounds, process for their preparation and their use, and the use of these compounds as fungicides” (F. HOFFMANN-LA ROCHE & CO. Aktiengesellschaft, priority 1978, dated 1979).
In brackets after ≈: the same amount, converted by molar mass.

Experiments:
[1] = test system: Erysiphe graminis; assay: Erysiphe graminis protective spray test on barley seedlings (greenhouse); format: in vivo; conditions: barley seedlings HERTA, infected 2 days after spraying, read 7 days after infection vs infected untreated control
Experimental: 30-40 Gerstenkeimlinge der Sorte HERTA (verteilt auf 2 Töpfe mit 7 cm Durchmesser) wurden jeweils im Einblattstadium mit einer wässerigen Dispersion der Testsubstanz (wie allgemein üblich aufbereitet als Spritzpulver) allseitig gründlich besprüht und anschliessend bei 22-26°C, 80% rel. Luftfeuchtigkeit und einer Photoperiode von 16 Stunden im Gewächshaus weiterkultiviert. Die Infektion erfolgte 2 Tage nach der Behandlung durch Bestäuben der Versuchspflanzen mit Kon dien von Erysiphe graminis. 7 Tage nach der Infektion wurde ::ie durch Erysiphe graminis befallene Blattfläche in % gegenüber derjenigen der infizierten, nicht behandelten Kontrolle ermittelt. Die Resultate sind in Tabelle I zusammengefasst.

[2] = test system: Candida albicans Stamm H 29; assay: Candida albicans in vitro agar dilution test; format: cell-based; conditions: STAMMH29, 168 h, minimal concentration fully preventing growth, tested at 100, 10, 1 mcg/ml, 7 days at 37°C, values mostly maximum values, true MHC may be lower
Experimental: Methode: Eine standardisierte Suspension der Hefeform von Candida albicans Stamm H 29 (ca. 300 Zellen/5 ml, das fünfzigfache der zum Angehen der Kultur notwendigen geringsten Keimzahl) wird gleichzeitig mit geeigneten Präparatlösungen in verflüssigten und auf 50°C abgekühlten Agarnährboden nach Rowley und Huber eingegossen. Lösung der Präparate in Wasser oder Polyäthylenglykol (Carbowax 400). Präparate, die weder in Wasser noch in Polyäthylenglykol löslich sind, werden fein suspendiert. Endkonzentrationen der Präparate im Nährboden 100, 10 und 1 mcg/ml. Endkonzentration von Polyäthylenglykol 5%. 7 Tage Bebrütung bei 37°C.
(§1) Auswertung: Ablesung des Pilzwachstums mit blossem Auge.
(§2) Resultate: Angabe der minimalen Präparatkonzentration in mcg/ml, die das Wachstum des Pilzes vollständig verhindert (MHC). Die Resultate sind für einige Beispiele in der nachstehenden Tabelle II zusammengefasst.

[3] = test system: Puccinia coronata; assay: Puccinia coronata protective spray test on oat seedlings; format: in vivo; conditions: oat seedlings FLAEMINGSKRONE, infected 2 days after spraying, read on day 9 after infection vs infected untreated control
Experimental: 30-40 Haferkeimlinge der Sorte FLAEMINGSKRONE (verteilt auf 2 Töpfe mit 7 cm Durchmesser) wurden jeweils im Einblattstadium mit einer wässerigen Dispersion der Testsubstanz (wie allgemein üblich aufbereitet als Spritzpulver) allseitig gründlich besprüht und anschliessend in einer Klimakabine bei 17°C. 70-80% rel. Luftfeuchtigkeit und einer Photoperiode von 16 Stunden weiterkultiviert. Nach 2 Tagen erfolgte die Infektion der Versuchspflanzen durch Besprühen mit in dest. Wasser suspendierten Uredosporen (300'000 Sporen/ml) vor. Puccinia coronata. Danach wurden die Pflanzen während 24 Stunden bei 20°C und einer Luftfeuchtigkeit von über 90W im Dunkeln inkubiert und anschliessend in ein Gewächshaus mit einer Temperatur von 22-26 °C, einer rel. Luftfeuchtigkeit von 70% und einer Photoperiode von 18 Stunden übe führt. Am 9. Tage nach der Infektion wurde die durch Pucrinia coronata befallene Blattfläche in % gegenüber der infizierten, nicht behandelten Kontrolle ermittelt. Die ResLltate sind in Tabelle I zusammengefasst.

[4] = test system: Venturia inaequalis; assay: Venturia inaequalis protective spray test on apple seedlings; format: in vivo; conditions: infected 2 days after spraying, read on day 13 after infection vs infected untreated control
Experimental: 3 Apfelpflänzchen (verteilt auf 3 Töpfe mit 5 cm Durchmesser) aus Samen der Sorte GOLDIN DELICIOUS wurden im 4- bis 5-Blattstadium mit einer wässerigen Dispersion der Testsubstanz (wie allgemein üblich aufbereitet als Spritzpulver) allseitig gründlich besprüht. Die behandelten Pflanzen wurden anschliessend während 2 Tagen bei 17°C, 70-80%rel. Luftfeuchtigkeit und einer Photoperiode von 14 Stunden weiterkultiviert. Danach erfolgte die Infektion der Apfelsämlinge durch Besprühen mit in dest. Wasser suspendierten Konidien (200'000 Konidien/ml) von Venturia inaequalis. Nach der Infektion wurden die Pflanzen im Dunkeln während 48 Stunden bei 16-18°C und einer rel. Luftfeuchtigkeit von über 90% inkubiert und anschliessend in ein schattiertes Gewächshaus mit einer Temperatur von 22-26 °C und einer rel. Luftfeuchtigkeit von über 80% überführt. Am 13. Tage nach der Infektion erfolgte die Ermittlung der durch Venturia inaequalis befallenen Blattfläche gegenüber der infizierten, nicht behandelten Kontrolle. Die Resultate sind in Tabelle II zusammengefasst.

[5] = test system: Histoplasma capsulatum Stamm Hist 2; assay: microbe, parasite or virus in culture; format: cell-based; conditions: 288 h, read-out: MHC (µg/ml) Histoplasma capsulatum
[6] = test system: Trichophyten mentagrophytes Stamm 109; assay: Trichophyton mentagrophytes in vitro agar dilution test; format: cell-based; conditions: STAMM109, 168 h, minimal concentration fully preventing growth, tested at 100, 10, 1, 0,1, 0,01 mcg/ml, 7 days at 37°C, values mostly maximum values, true MHC may be lower, read-out: MHC (µg/ml) Trichophyton mentagr.
Experimental: Methode: Eine standardisierte Suspension der Hefeform von Konidien (Sporen) von Trichophyten mentagrophytes Stamm 109 (ca. das Fünfzigfache der zum Angehen der Kultur notwendigen geringsten Keimzahl) wird gleichzeitig mit geeigneten Präparatlösungen in verflüssigten und auf 50°C abgekühlten Agarnährboden nach Rowley und Huber eingegossen. Lösung der Präparate in Wasser oder Polyäthylenglykol (Carbowax 400). Präparate, die weder in Wasser noch in Polyäthylenglykol löslich sind, werden fein suspendiert. End- . konzentrationen der Präparate im Nährboden 100, 10, 1, 0,1 und 0,01 mcg/ml. Endkonzentration von Polyäthylenglykol 5%. 7 Tage Bebrütung bei 37°C.
as §1, §2

Compound: CCC(C)(C)c1ccc(C(C)=C(C)CN2CCC(=O)CC2)cc1 [1-[3-(p-tert.-Amyl-phenyl)-2,3-dimethyl-2-propenyl]-4-piperidon]
- Wirkung (in %) Erysiphe graminis ([1]; 5 mg/l Spritzbrühe): 60%
- Wirkung (in %) Erysiphe graminis ([1]; 16 mg/l Spritzbrühe): 85%
- Wirkung (in %) Erysiphe graminis ([1]; 50 mg/l Spritzbrühe): 90%
- Wirkung (in %) Erysiphe graminis ([1]; 160 mg/l Spritzbrühe): 98%
- MIC [2]: 10 µg/mL (≈ 31.9 µM)
- Wirkung (in %) Puccinia coronata ([3]; 5 mg/l Spritzbrühe): 90%
- Wirkung (in %) Puccinia coronata ([3]; 16 mg/l Spritzbrühe): 95%
- Wirkung (in %) Puccinia coronata ([3]; 50 mg/l Spritzbrühe): 100%
- Wirkung (in %) Puccinia coronata ([3]; 160 mg/l Spritzbrühe): 100%
- Wirkung (in %) Puccinia coronata ([3]; 500 mg/l Spritzbrühe): 100%
- Wirkung (in %) Venturia inaequalis ([4]; 5 mg/l Spritzbrühe): 0%
- Wirkung (in %) Venturia inaequalis ([4]; 16 mg/l Spritzbrühe): 37%
- Wirkung (in %) Venturia inaequalis ([4]; 50 mg/l Spritzbrühe): 83%
- Wirkung (in %) Venturia inaequalis ([4]; 160 mg/l Spritzbrühe): 98%
- MIC [5]: 10 µg/mL (≈ 31.9 µM)
- MIC [6]: 10 µg/mL (≈ 31.9 µM)

Compound: CCC(C)(C)c1ccc(CC(C)CN2CCC(=O)CC2)cc1 (stereo not drawn) [1-[3-(p-tert.-Amyl-phenyl)-2-methyl-propyl]-4-piperidon]
- Wirkung (in %) Erysiphe graminis ([1]; 5 mg/l Spritzbrühe): 20%
- Wirkung (in %) Erysiphe graminis ([1]; 16 mg/l Spritzbrühe): 80%
- Wirkung (in %) Erysiphe graminis ([1]; 50 mg/l Spritzbrühe): 95%
- Wirkung (in %) Erysiphe graminis ([1]; 160 mg/l Spritzbrühe): 100%
- Wirkung (in %) Erysiphe graminis ([1]; 500 mg/l Spritzbrühe): 100%
- MIC [2]: 10 µg/mL (≈ 33.2 µM)
- Wirkung (in %) Puccinia coronata ([3]; 5 mg/l Spritzbrühe): 0%
- Wirkung (in %) Puccinia coronata ([3]; 16 mg/l Spritzbrühe): 10%
- Wirkung (in %) Puccinia coronata ([3]; 50 mg/l Spritzbrühe): 90%
- Wirkung (in %) Puccinia coronata ([3]; 160 mg/l Spritzbrühe): 98%
- Wirkung (in %) Puccinia coronata ([3]; 500 mg/l Spritzbrühe): 100%
- Wirkung (in %) Venturia inaequalis ([4]; 500 mg/l Spritzbrühe): 20%
- MIC [5]: 10 µg/mL (≈ 33.2 µM)
- MIC [6]: 10 µg/mL (≈ 33.2 µM)
